In US12187758B2 (ROME Therapeutics, Inc., priority 2022, dated 2025):
Read-outs that look alike come from different tables or passages of the source.

Experiments:
[1] = tested on: interferon-stimulated gene (ISG) response; test: In vivo decitabine challenge model in C57BL/6 mice; details: kidneys, decitabine i.p. 5 mg/kg, compound 1, 10, 100 mg/kg p.o. once a day
Method: Exemplary compounds were tested for ability to alter the interferon-stimulated gene (ISG) response in C57BL/6 mice treated with decitabine. Assay procedures and results are described below. Twenty 9-11 week old C57BL/6 mice were acclimated to the lab for at least 5 days. Compound 23 was prepared in a 0.5% methylcellulose solution for p.o. administration. Decitabine (Sigma-Aldrich) was dissolved in sterile PBS (pH 7.4) and dosed within 30 minutes of preparation of the solution. Doses of both the compound and decitabine were administered once a day, every day from Day 0 to Day 4. […] The fold changes in interferon-stimulated gene (ISG) expression was calculated by first normalizing to GAPDH gene using the Delta CT method. The CT (gene of interest) —CT (reference gene) was calculated to generate a delta CT for all samples. […] The fold changes in interferon-stimulated gene (ISG, specifically IRF7 and MX1) expression was calculated by first normalizing to GAPDH gene using the Delta CT method. The CT (gene of interest)−CT (reference gene) was calculated to generate a delta CT for all samples. The fold change was then calculated by taking the […](Delta CT(control)−Delta CT (experimental). The control in this example was the PBS control animal group. Individual primers were used to amplify target genes.

THP1-Dual KO-TREX1 cells = test: THP1 TREX1 KO inhibition assay, combination dosing; format: cell-based; details: for EC50: Homo sapiens, THP1-Dual, read-out: EC50 of Compound 2
Method: Exemplary compounds were tested to determine the effect of combined dosing of two compounds on the type 1 interferon response in THP1 Dual TREX1 KO cells treated with 5-aza-2′-deoxycytidine. Assay procedures and results are described below.
THP1 Dual TREX1 KO cells were purchased from InvivoGen. The THP1-Dual™ KO-TREX1 cells were cultured in RPMI 1640, 10% heat-inactivated fetal bovine serum, 25 mM HEPES, 10 μg/mL blasticidin, and 100 μg/mL Zeocin. THP1-Dual™ KO-TREX1 cells were treated with a dose titration of test compound in the presence of 1 μM 5-aza-2′-deoxycytidine (Sigma, cat #189825). Type 1 Interferon and cell viability were assessed after five days of treatment.
Stock solution of test compounds stampidine and Compound 2 were prepared in DMSO followed by a three-fold dilution in DMSO. The plate was prepared with a matrix of test compound concentrations, with stampidine on the y-axis (final concentrations 3 μM to 0.0003 μM) and Compound 2 on the x-axis (final concentrations 0.3 μM to 0.00003 μM). Additional 50× dilution was prepared in cell culture media for each dilution. 10 μL of diluted test compound was then added to a 384-well plate.
THP1-Dual™ KO-TREX1 cells were treated with 1 μM 5-aza-2′-deoxycytidine. THP1-Dual™ KO-TREX1 cells (50 μL) were added to each well of the 384-well plate containing test compound titration at 10,000 cells/well. Cells were incubated at 37° C., 5% CO2 in a humidified incubator for five days. On day five, 20 μL of cell supernatant was transferred to a 384-well, white-walled plate, followed by addition to each well of 50 μL of QUANTI-LUC solution containing stabilizer. Luminescence was detected on a plate reader according to manufacturer's instructions. Percent inhibition of interferon was calculated using the following analysis: (Average DMSO-Sample)/(Average DMSO-Average 30 μM stampidine)*100.
The remaining cells were assessed for cell viability by adding 30 μl of CellTiter-Glo (Promega, G9683) solution to each well, and placed on a shaker for 10 minutes at room temperature. Luminescence was detected on a plate reader, according to manufacturer's instructions. Percent inhibition of cell viability using CellTiter-Glo was calculated using the following analysis: (Average DMSO−Sample)/(Average DMSO−Average 20 μM viability control reagent)*100.
Combination analysis was performed using the Bivariate Response to Additive Interacting Doses (BRAID) according to Twarog, N. R., et al. Scientific Reports 6:25523 (DOI: 10.1038/srep25523). The best BRAID fit was determined to be k 2.00 (0.583-3.64), where k>0 denotes synergy, k=0 denotes additivity, and k<0 denotes antagonism. Potentiation modeling curves are provided for potentiation of Compound 2 at four concentrations of stampidine (FIG. 7A) and for potentiation of stampidine at four concentrations of Compound 2 (FIG. 7B).

Nc1ccn([C@H]2C[C@H](O)[C@](CO)(CCl)O2)c(=O)n1 [Compound 2, 4-amino-1-((2R,4S,5R)-5-(chloromethyl)-4-hydroxy-5-(hydroxymethyl)tetrahydrofuran-2-yl)pyrimidin-2(1H)-one]
change in ISG response (IRF7 and MX1), FIGS. 2B and 2C [1]: shows a change in the ISG response | EC50 (THP1-Dual KO-TREX1 cells; Stampidine 0 μM): 40 nM | EC50 (THP1-Dual KO-TREX1 cells; Stampidine 0.001 μM): 33.5 nM | EC50 (THP1-Dual KO-TREX1 cells; Stampidine 0.01 μM): 20.3 nM | EC50 (THP1-Dual KO-TREX1 cells; Stampidine 0.1 μM): 0.15 nM | BRAID fit k (k>0 denotes synergy) (THP1-Dual KO-TREX1 cells; combination of stampidine and Compound 2, 1 μM 5-aza-2′-deoxycytidine, five days): 2.00 (0.583-3.64)
